Assay: ESI positive response factor (isotope-corrected peak area per molar concentration) in SFC/ESI/HRMS (area units per M); higher = higher ionization efficiency
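Note: standards in acetonitrile/water run in triplicate on a zwitterionic HILIC column, CO2–methanol gradient containing 20 mmol/L ammonium acetate, postcolumn makeup flow, Orbitrap full-scan detection.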

Row | SMILES | ESI positive response factor (0.0175 µM) | ESI positive response factor (0.035 µM) | ESI positive response factor (0.0875 µM) | ESI positive response factor (0.175 µM) | ESI positive response factor (0.35 µM) | also measured
1 | Cc1cc(=O)oc2cc(O)ccc12 [4-Methylumbelliferone] | – | – | – | – | – | ESI positive response factor (0.0122 µM): 7.52e+16; ESI positive response factor (0.0244 µM): 8.88e+16; ESI positive response factor (0.061 µM): 7.61e+16; ESI positive response factor (0.122 µM): 7.61e+16; ESI positive response factor (0.244 µM): 7.56e+16
2 | CC(=O)OCC[N+](C)(C)C [Acetylcholine] | 2.2e+17 | 1.98e+17 | 2.4e+17 | 2.16e+17 | 2.13e+17 | –
3 | NC(=O)c1c(Cl)cccc1Cl [2,6-Dichlorbenzamid] | – | 1.78e+16 | 2.14e+16 | 2.26e+16 | 2.46e+16 | ESI positive response factor (0.875 µM): 2.38e+16
4 | Nc1ccnc(=O)[nH]1 [Cytosine] | – | – | – | – | 2.81e+15 | ESI positive response factor (0.875 µM): 3.21e+15; ESI positive response factor (1.75 µM): 3.05e+15
5 | CC(=O)Nc1ccc(O)cc1 [Acetaminophen] | 3.61e+16 | 4.56e+16 | 4.18e+16 | 3.74e+16 | 4.29e+16 | –
6 | COC(=O)N(OC)c1ccccc1COc1ccn(-c2ccc(Cl)cc2)n1 [Pyraclostrobin] | 6.62e+17 | 5.71e+17 | 5.45e+17 | 4.73e+17 | 5.43e+17 | –
7 | CCOP(=O)(OCC)OC(=CCl)c1ccc(Cl)cc1Cl [Chlorfenvinphos] | 2.81e+17 | 3.28e+17 | 3.25e+17 | 2.98e+17 | 4.34e+17 | –
8 | C[N+](C)(C)CCCl [Chlormequate] | 1.55e+17 | 1.26e+17 | 1.95e+17 | 1.76e+17 | 1.85e+17 | –
9 | N=C(N=C(N)N)N1CCOCC1 [Moroxydine] | – | – | – | – | – | ESI positive response factor (0.0122 µM): 1.51e+17; ESI positive response factor (0.0244 µM): 1.7e+17; ESI positive response factor (0.061 µM): 1.94e+17; ESI positive response factor (0.122 µM): 1.92e+17; ESI positive response factor (0.244 µM): 1.97e+17
10 | CN=C(NC#N)NCCSCc1nc[nH]c1C [Cimetidine] | 6.5e+16 | 9.26e+16 | 8.81e+16 | 8.23e+16 | 9.32e+16 | ESI positive response factor (0.875 µM): 8.86e+16
11 | CC1=C(C(=O)Nc2ccccc2)SCCO1 [Carboxin] | 7.6e+16 | 1.1e+17 | 1.07e+17 | 9.93e+16 | 1.1e+17 | –
12 | N#CN=C(N)N [Dicyandiamide] | – | 3.07e+15 | 4.26e+15 | 3.9e+15 | 4.96e+15 | ESI positive response factor (0.875 µM): 6.05e+15; ESI positive response factor (1.75 µM): 6.06e+15
13 | COC(=O)C1=CCCN(C)C1 [Arecolin] | 4.44e+17 | 4.27e+17 | 4.13e+17 | 3.78e+17 | 3.77e+17 | –
14 | CON(C)C(=O)Nc1ccc(Br)c(Cl)c1 [Chlorbromuron] | – | 4.74e+16 | 4.82e+16 | 4.62e+16 | 5.21e+16 | –
15 | Nc1ccc(S(=O)(=O)c2ccc(N)cc2)cc1 [Dapson] | 6.07e+16 | 8.29e+16 | 8.16e+16 | – | – | –
16 | CCNC(=O)[C@H](C)OC(=O)Nc1ccccc1 [Carbetamid] | 5.72e+16 | 7.07e+16 | 6.85e+16 | 6.12e+16 | 6.45e+16 | –
17 | CC(=O)C1=C(C)C2CC3(C1)C(C)CCC3C2(C)C (stereo not drawn) [Methyl cedryl ketone] | – | – | – | – | – | ESI positive response factor (0.122 µM): 1.43e+16; ESI positive response factor (0.244 µM): 1.56e+16; ESI positive response factor (0.61 µM): 1.43e+16; ESI positive response factor (1.22 µM): 1.44e+16
18 | Nc1cnn(-c2ccccc2)c(=O)c1Cl [Chloridazon] | 7.49e+16 | 1.01e+17 | 8.99e+16 | – | – | –

Row | SMILES | ESI positive response factor (0.0175 µM) | ESI positive response factor (0.035 µM) | ESI positive response factor (0.0875 µM) | ESI positive response factor (0.175 µM) | ESI positive response factor (0.35 µM) | also measured
19 | CC(Oc1ccc(Oc2ncc(C(F)(F)F)cc2Cl)cc1)C(=O)O (stereo not drawn) [Haloxyfop] | – | – | – | – | – | ESI positive response factor (0.244 µM): 5.62e+15; ESI positive response factor (0.61 µM): 5.23e+15; ESI positive response factor (1.22 µM): 4.69e+15
20 | CCN(CC)C(=O)c1cccc(C)c1 [DEET] | – | – | – | – | 4.74e+17 | ESI positive response factor (0.875 µM): 4.86e+17
21 | C[NH2+]C[C@H](O)CO [3-Methylamino-1,2-propanediol] | – | – | – | – | – | ESI positive response factor (0.0122 µM): 7.17e+16; ESI positive response factor (0.0244 µM): 4.4e+16; ESI positive response factor (0.061 µM): 6.78e+16; ESI positive response factor (0.122 µM): 6.39e+16; ESI positive response factor (0.244 µM): 7.28e+16; ESI positive response factor (0.61 µM): 6.66e+16
22 | COc1nc(C)nc(NC(=O)NS(=O)(=O)c2ccccc2Cl)n1 [Chlorsulfuron] | – | 4.22e+16 | 4.88e+16 | 5.05e+16 | 5.61e+16 | ESI positive response factor (0.875 µM): 5.75e+16; ESI positive response factor (1.75 µM): 5.77e+16
23 | OCC[C@@H]1CCCC[NH2+]1 [2-Piperidineethanol] | – | – | – | – | – | ESI positive response factor (0.0122 µM): 1.24e+17; ESI positive response factor (0.0244 µM): 1.22e+17; ESI positive response factor (0.061 µM): 9.77e+16; ESI positive response factor (0.122 µM): 1.07e+17; ESI positive response factor (0.244 µM): 1.07e+17
24 | CCc1cccc(C)c1N(C(=O)CCl)C(C)COC (stereo not drawn) [Metolachlor] | – | – | – | – | – | ESI positive response factor (0.0122 µM): 4.41e+17; ESI positive response factor (0.0244 µM): 5.34e+17; ESI positive response factor (0.061 µM): 5.13e+17
25 | CN(C)C(=N)N=C(N)N [Metformin] | – | – | – | – | – | ESI positive response factor (0.0244 µM): 4.62e+16; ESI positive response factor (0.061 µM): 9.71e+16; ESI positive response factor (0.122 µM): 9.59e+16; ESI positive response factor (0.244 µM): 1.01e+17
26 | C1CN(CCOCCN2CCOCC2)CCO1 [4,4'-(Oxydi-2,1-ethanediyl)bismorpholine] | 4.89e+17 | – | 1.92e+17 | 3.18e+17 | 3.23e+17 | ESI positive response factor (0.875 µM): 4.13e+17; ESI positive response factor (1.75 µM): 3.43e+17
27 | CN1CCN(C)C1=O [1,3-Dimethyl-2-imidazolidinone] | 6.51e+16 | 7.85e+16 | 6.75e+16 | 6.53e+16 | – | –
28 | O=P(OC(CCl)CCl)(OC(CCl)CCl)OC(CCl)CCl [TDCPP] | 4.09e+17 | 4.02e+17 | 3.57e+17 | – | – | –
29 | CCCCC(CC)CNCC(CC)CCCC (stereo not drawn) [Bis(2-ethylhexyl)amine] | 8.07e+17 | 8.73e+17 | 9.48e+17 | 9.83e+17 | – | –
30 | O=C(O)Cc1ccccc1Nc1c(Cl)cccc1Cl [Diclofenac] | – | – | – | – | 3.71e+15 | ESI positive response factor (0.875 µM): 5.3e+15; ESI positive response factor (1.75 µM): 5.19e+15
31 | CC(O)CN(CCO)CCO (stereo not drawn) [1-[N,N-Bis(2-hydroxyethyl)amino]-2-propanol] | 2.91e+17 | 3.14e+17 | 3.24e+17 | 2.77e+17 | 2.94e+17 | –
32 | C[C@]12CC[C@H]3[C@@H](CCC4=CC(=O)CC[C@@]43C)[C@@H]1CC[C@@H]2O [Testosteron] | 2.27e+17 | 2.44e+17 | 2.22e+17 | – | – | –
33 | CNC(=O)CSP(=O)(OC)OC [Omethoate] | 2.18e+16 | 3.37e+16 | 3.65e+16 | 3.18e+16 | 3.93e+16 | –
34 | N[C@@H](Cc1ccc(O)cc1)C(=O)O [L-Tyrosine] | – | – | – | – | – | ESI positive response factor (0.061 µM): 2.58e+15; ESI positive response factor (0.122 µM): 2.67e+15; ESI positive response factor (0.244 µM): 3.05e+15
35 | C#C[C@]1(O)CC[C@H]2[C@@H]3CCc4cc(O)ccc4[C@H]3CC[C@@]21C [17-Alpha-Ethinylestradiol] | – | 1.46e+16 | 1.85e+16 | 1.59e+16 | 1.71e+16 | –

Further lines, with some results ahead:

Row | ESI positive response factor (0.0175 µM) | ESI positive response factor (0.035 µM) | ESI positive response factor (0.0875 µM) | ESI positive response factor (0.175 µM) | ESI positive response factor (0.35 µM) | SMILES | also measured
36 | – | 7.47e+15 | 7.04e+15 | 6.98e+15 | 6.96e+15 | COc1ccc2cc(C(C)C(=O)O)ccc2c1 (stereo not drawn) [Naproxen] | –
37 | 2.87e+17 | 3.29e+17 | 3.2e+17 | 3.2e+17 | – | CCOC(=O)[C@H](CCc1ccccc1)N[C@@H](C)C(=O)N1CCC[C@H]1C(=O)O [Enalapril] | –
38 | 9.5e+16 | 1.16e+17 | 1.1e+17 | 1.05e+17 | – | CNCCC(Oc1ccc(C(F)(F)F)cc1)c1ccccc1 (stereo not drawn) [Fluoxetine] | –
39 | – | – | – | – | 8.93e+15 | CC(=O)NCCCCC(N)C(=O)O [N?-Acetyl-L-lysine] | ESI positive response factor (0.875 µM): 9.29e+15; ESI positive response factor (1.75 µM): 9.24e+15
40 | – | – | 2.45e+16 | 3.25e+16 | 3.73e+16 | NC(N)=Nc1nc(CSCCC(N)=NS(N)(=O)=O)cs1 [Famotidin] | ESI positive response factor (0.875 µM): 3.76e+16; ESI positive response factor (1.75 µM): 3.72e+16
41 | 5.41e+17 | 5.89e+17 | 5.34e+17 | – | – | CCOC(=O)NCCOc1ccc(Oc2ccccc2)cc1 [Fenoxycarb] | –
42 | – | – | 1.56e+15 | – | 6.42e+15 | CC(=O)N1CC(O)C[C@H]1C(=O)O (stereo in doubt) [Trans-1-acetyl-4-hydroxy-L-prolin] | ESI positive response factor (0.875 µM): 6.4e+15; ESI positive response factor (1.75 µM): 6.39e+15
43 | 2.9e+17 | 3.42e+17 | 3.34e+17 | 3.21e+17 | 3.4e+17 | NC(N)=NC(N)=NCCc1ccccc1 [Phenformin] | –
44 | 2.28e+17 | 2.68e+17 | 2.59e+17 | – | – | CC(C)NCC(O)c1ccc(NS(C)(=O)=O)cc1 (stereo not drawn) [Sotalol] | –
45 | 2.88e+17 | 3.52e+17 | 3.58e+17 | 3.13e+17 | 3.46e+17 | COc1cc(Cc2cnc(N)nc2N)cc(OC)c1OC [Trimethoprim] | ESI positive response factor (0.875 µM): 3.33e+17
46 | 8.19e+16 | 9.98e+16 | 8.29e+16 | 7.97e+16 | – | COCCOCCOCCO [Triethylene glycol monomethyl ether] | –

Reference: the supplement of paper PMC10326909
